Source: patent publication US11931347B2, “Method of screening for agents for differentiating stem cells” (MINERVA BIOTECHNOLOGIES CORPORATION, priority 2015, dated 2024)

Tests used:
[1] = system: human primed state stem cells; test: stem cell drug screening assay on primed state stem cells; assay type: cell-based; design: key to effect on primed state stem cells, score: “−” indicates that at 6 uM the drug candidate did not have an obvious effect on the pluripotency or proliferation of the stem cells; A “+” indicates a mild effect; a score of −, or +, ++, +++, or ++++ is given; a score of −, or +, ++, +++, or ++++ is given; “++++” indicates a profound effect on pluripotency or proliferation
Method: (§1) The stem cell screening assay, was performed in both the presence and absence of the stem cell growth factors: NME7AB for growing naïve stem cells or FGF for growing primed stem cells. If the cognate growth factor was present, then the biological or small molecule would have to compete away the growth factor to get an effect. Therefore, we expected to see more of an effect when the growth factor, FGF for primed stem cells or NME7AB or NME1 dimers for naïve stem cells, was absent. The effect of the compounds on stem cells was visually determined and compounds were ranked 0-4, with 4 being the greatest effect and 0 being no observable effect. The major effect that was observed was a change from pluripotent stem cell morphology, which is a cobblestone pattern of small round cells with a large nucleus to cytoplasm ratio, to that of differentiating stem cells, which are elongated, large and flattened cells with a smaller nucleus to cytoplasm ratio. […] The compounds were added to a final concentration of 6 uM to either naïve state stem cells or primed state stem cells. In this particular case, the naïve state stem cells were maintained in a naïve state by culturing in a media containing NME7AB or NME1 dimers. However, other methods such as 2i and 5i (Silva et al., 2008, Nichols and Smith, 2009, Theunissen et al., 2014)] can be used to maintain stem cells in a more naïve state. In this case primed state stem cells were cultured in bFGF over a layer of MEFs, although it is known that any bFGF containing media will maintain stem cells in the primed state.
Stem cells whether embryonic or induced pluripotent stem (iPS) cells were cultured in a minimal, serum-free media that contained human recombinant bFGF at a concentration of 8 ng/mL. The stem cells were plated over a layer of inactivated mouse embryonic fibroblasts, aka MEFs, which secrete additional uncharacterized growth factors and cytokines.
(§2) Human naïve state and primed stem cells were cultured in parallel for at least 5 passages to guarantee normal differentiation-free growth. The stem cells were plated in 12-well cell culture plates with 50,000 cells per well. Cells were cultured in their respective media, either bFGF media or NME7AB media for 24 hours. Media was then removed and replaced with media devoid of bFGF or NME7AB, when indicated. Agents being tested for their ability to induce differentiation of naïve stem cells were added to the media at the concentrations indicated. After 72 hours, photographs were taken see FIGS. 1-10.
(§3) Human naïve state and primed stem cells were cultured in parallel for at least 5 passages to guarantee normal differentiation-free growth. The stem cells were plated in 12-well cell culture plates with 50,000 cells per well. Cells were cultured in their respective media, either bFGF media or NME7AB media for 24 hours. Media was then removed and replaced with media devoid of bFGF or NME7AB. […] Media was changed after 48 hours and replaced with fresh media containing the BRD4 inhibitors. After 4 days the experiment was stopped. Photographs were taken and cell pellets collected for further analysis, see FIGS. 11-16.

T47D breast cancer cells [2] = test: cancer cell proliferation assay (Calcein live cell stain); assay type: cell-based, human; conditions: for inhibition of cancer cell proliferation relative to parent compounds: T47D, Calcein assay after 120 hours, 40-2.5 uM
Method: These analogs of MN1194 and 1186 were also tested in a cell growth assay (FIGS. 107A1-107H6 and FIG. 108A1-108H6, respectively). In this experiment, both parent compound and analogs thereof were added to normal cell culture media to final concentrations of 40 uM, 20 uM, 10 uM, 5 uM or 2.5 uM. For comparison, previously known cancer cell migration inhibitors SU11274 and MN1204 were included in the same experiment. […] Relative cell proliferation is quantified on a standard plate reader that reads the fluorescence of the Calcein that is taken up by live cells.
Small molecule inhibition of cancer cell proliferation studies were also performed on several cancer sub-types. […] The small molecules of the invention had the most robust effect on T47D breast cancer cells, which are highly positive for MUC1* growth factor receptor, and its activating ligands NME7AB and NME7-X1.
(§4) For the cancer cell proliferation experiment cancer cells were plated at constant densities (6000 cells/well) into a 96-well White-walled/Clear-bottom Tissue Culture Treated plate (Corning Incorporated, Big Flats, N.Y.). Small molecule analogs are added at T=24 hours in media with 2% FBS. Following the addition of the small molecules, the cells remain untouched for 120 hours with visual confirmations/inspections at 24, 48, 72 and 96 hours post plating. At the 120 hour mark a calcein fluorescence assay (Thermo Fisher Scientific, Waltham, Mass.) is performed on the plate. Calcein fluorescence (final concentration 0.5 uM) is used to assess cell viability. Cancer cell fluorescence is measured in a TECAN SAFIRE^2 spectrophotometer plate reader. The plate is then imaged using an Olympus IX71 fluorescence imaging microscope and montage of the resulting images are assembled using ImageJ.

[3] = system: MDA-MB-453 breast cancer cells; test: cancer cell proliferation assay (Calcein); assay type: cell-based; conditions: 96 hours (FIG. 110)
Method: as §4, with “Small molecule inhibition of cancer cell proliferation studies were also performed on several cancer sub-types. […] The small molecules of the invention had the most robust effect on T47D breast cancer cells, which are highly positive for MUC1* growth factor receptor, and its activating ligands NME7AB and NME7-X1. […] For” for “For”

[4] = system: PC-3 MUC1* negative, NME7AB positive prostate cancer cells; test: cancer cell proliferation assay (Calcein); assay type: cell-based; conditions: 96 hours (FIG. 111)
Method: as §4, with “Small molecule inhibition of cancer cell proliferation studies were also performed on several cancer sub-types. […] The small molecules of the invention had the most robust effect on T47D breast cancer cells, which are highly positive for MUC1* growth factor receptor, and its activating ligands NME7AB and NME7-X1. […] For” for “For”

[5] = system: DU145 MUC1* positive prostate cancer cells; test: cancer cell proliferation assay (Calcein); assay type: cell-based; conditions: 96 hours (FIG. 109)
Method: as §4, with “Small molecule inhibition of cancer cell proliferation studies were also performed on several cancer sub-types. […] The small molecules of the invention had the most robust effect on T47D breast cancer cells, which are highly positive for MUC1* growth factor receptor, and its activating ligands NME7AB and NME7-X1. […] For” for “For”

[6] = system: human naïve state stem cells; test: stem cell drug screening assay on naïve state stem cells; assay type: cell-based; design: key to effect on naïve stem cells, score: “−” indicates that at 6 uM the drug candidate did not have an obvious effect on the pluripotency or proliferation of the stem cells; A “+” indicates a mild effect; a score of −, or +, ++, +++, or ++++ is given; a score of −, or +, ++, +++, or ++++ is given; “++++” indicates a profound effect on pluripotency or proliferation; conditions: 6 uM, 3 days, NME7AB absent
Method: as §1
Stem cells whether embryonic or induced pluripotent stem (iPS) cells were cultured in a minimal, serum-free media that contained human recombinant NME7AB at a concentration of 2-32 nM wherein 4-8 nM is preferred and 4 nM is more preferred. To facilitate surface attachment, cell culture plates were coated with an anti-MUC1* monoclonal antibody called MN-C3 or C3 or MN-C8 at a concentration of 2-100 ug/mL coating solution, wherein 3-50 ug/mL is preferred and 6-12.5 ug/mL is more preferred. In these experiments, 12.5 ug/mL of MN-C3 was used. Antibody coated plates were incubated at 4 degrees C. overnight prior to plating stem cells. A Rho kinase I inhibitor was added to enhance surface attachment. In some cases, NME7AB was substituted with human recombinant NME1 dimers which also induce stem cells to revert to a naïve-like state.
as §2, §3

T47D breast cancer cells [7] = test: cancer cell migration, invasion assay (Platypus/Oris system); assay type: cell-based, human; conditions: T47D; for inhibition of cancer cell migration: 120 hours; for IC50: Homo sapiens, curves calculated from 72 hour post dosing time point, read-out: IC50 of inhibition of cancer cell migration
Method: We then tested an expanded panel of agents, including agents known to inhibit cancer growth or migration (FIG. 17) (Horm et al., 2012; Meng & Yue, 2014; Zhen et al., 2014), which is characteristic of aggressive or metastatic cancers. We also synthesized a series of novel small molecules, tested them in the stem cell drug screening assay, and then synthesized analogs of the best hits. These small molecules are pictured in FIGS. 18-27. Both the known compounds and the novel compounds were tested in the stem cell drug screening assay. The effects of the small molecules on naïve versus primed state stem cells are shown in the photographs of FIGS. 29-72. The small molecules pictured in FIGS. 17-27 and the biologicals were also tested in a cancer cell migration assay. A structure activity relationship table is seen in FIG. 28. Potent cancer cell migration is characteristic of cancer cell invasion of other tissues and of metastasis. Typical migration assays involve coating a cell culture plate with fibronectin, collagen or the like, plating cancer cells and making a scar across through the cells and measuring the time it takes for the cancer cells to invade the void space. An alternative approach that gives more reliable data is the Platypus System which is a special multi-well cell culture plate with a juxtaposed set of plugs that block off a circle in the center of each well. Cancer cells are plated while the plugs are in place, then they are removed after the cells attach to the plate surface. […] A bar graph summarizing the results of the known anti-migration compounds compared to the anti-MUC1* Fab E6 and the first few small molecules synthesized is shown in FIG. 73. The effect of two novel small molecules MN1186 and MN1194, compared to the known anti-migration molecule SU11274, is shown in FIG. 75A-75U. FIG. 75V is a graph showing the measured inhibition of cancer cell migration at time 0, 24 hours or 48 hours for a number of compounds. […] FIG. 75X is a graph showing how IC50's of the small molecules of the invention were measured and calculated.
Percent inhibition of cancer cell migration was performed in a wound healing assay. The Percent area that the invading cancer cells occupied, in the presence of a drug candidate compared to the controls, was quantified by Image J cell software which enables cell counting from photographs. IC50's were calculated by performing migration experiments at several compound concentrations and then applying Hill's equation. Inhibition of cancer cell proliferation was quantified by automated cell counting in the presence or absence of a drug candidate. Here, the potency of the drug candidate was simply scored 4 for the highest degree of inhibition and 0 for the lowest. […] The effect of each drug candidate was scored 0-4, with 4 being the highest in inhibiting cell proliferation (FIG. 28).
For the cancer cell migration experiment cancer cells were plated at varying densities into an Oris Cell Migration Assay Collagen-1 coated 96-well plate (Platypus Technologies LLC, Madison, Wis.). The Collagen-1 coated 96-well plate incorporates a specific vacuum plug which attaches to the bottom of each well, creating an area in which the cells cannot grow into. Once the cells have been plated at high densities into each well, they are allotted an 18-24 hour time period to attach to the bottom of the wells. Post-24 hour plugs are removed from the plate and then small molecule analogs are added to the wells. Images are taken of each well and represent time 0 (T=0) for each well. Images are taken of the wells at the 24, 48, 72, 96 and 120 hour time points. Data analysis is conducted using the images taken at these specific time point. Images are imported into ImageJ (Rasband, W. S., ImageJ, U. S. National Institutes of Health, Bethesda, Md., USA, http://imagej.nih.gov/ij/, 1997-2016.) and the area remaining free of cells is calculated. […]

With `Cc1sc2c(c1C)C(c1ccc(Cl)cc1)=N[C@@H](CC(=O)OC(C)(C)C)c1nnc(C)n1-2` [JQ1(−), JQ1] the “induction of differentiation of primed state stem cells” value ([1]; treated for 3 days, bFGF absent) was “None of these agents appeared to induce differentiation”.

In the case of `CC(C)CC1c2[nH]c3ccccc3c2CCN1C(=O)CCc1ccccc1` (stereo not drawn) [MN1133], the “inhibition of growth of T47D cells” value (T47D breast cancer cells [2]; live cell Calcein stain, 96 hours (FIG. 113)) is reported as “severely inhibited growth”, the “inhibition of growth of MDA-MB-453 cells” value [3] is reported as “inhibited the growth” and the “inhibition of growth of PC-3 cells” value [4] is reported as “inhibited the growth”. The “inhibition of growth of DU145 cells” value [5] was “inhibited the growth”.

`CC(C)CC1c2[nH]c3ccccc3c2CCN1C(=O)CNC(=O)OC(C)(C)C` (stereo not drawn) [MN1186] was tested, and the “effect on naïve stem cells, score” value [6] was “++++”, the “inhibition of cancer cell migration” value (T47D breast cancer cells [7]) was “most potent inhibitors of cancer cell migration” and the “effect on primed state stem cells, score” value ([1]; 6 uM, 3 days, FGF absent) was “++”.

`CC(C)CC1c2[nH]c3ccccc3c2CCN1C(=O)CCCNC(=O)OC(C)(C)C` (stereo not drawn) [MN1190] was tested, and the “inhibition of cancer cell proliferation relative to parent compounds” value (T47D breast cancer cells [2]) was “inhibit cancer cell proliferation better than parent compounds” and the “inhibition of cancer cell migration” value (T47D breast cancer cells [7]) was “improvements over MN1186”.

In the case of `CC(C)CC1c2[nH]c3ccccc3c2CCN1C(=O)CCCCNC(=O)OC(C)(C)C` (stereo not drawn) [MN1194], the “effect on naïve stem cells, score” value [6] is reported as “++++”, the “inhibition of cancer cell migration” value (T47D breast cancer cells [7]) is reported as “most potent inhibitors of cancer cell migration” and the “effect on primed stem cell pluripotency, growth or differentiation (visually determined)” value ([1]; 6 uM, 3 days) is reported as “barely affected”.

In the case of `CC(C)CC1c2[nH]c3ccccc3c2CCN1C(=O)CCCCCNC(=O)OC(C)(C)C` (stereo not drawn) [MN1195], the “inhibition of cancer cell proliferation relative to parent compounds” value (T47D breast cancer cells [2]) is reported as “inhibit cancer cell proliferation better than parent compounds” and the “inhibition of cancer cell migration” value (T47D breast cancer cells [7]) is reported as “improvements over MN1186”.

In the case of `CC(C)CC1c2[nH]c3cc(Cl)ccc3c2CCN1C(=O)CNC(=O)OC(C)(C)C` (stereo not drawn) [MN1228], the “inhibition of cancer cell proliferation relative to parent compounds” value (T47D breast cancer cells [2]) is reported as “inhibit cancer cell proliferation better than parent compounds” and the “inhibition of cancer cell migration” value (T47D breast cancer cells [7]) is reported as “improvements over MN1186”.

`CC(C)CC1c2[nH]c3cc(F)ccc3c2CCN1C(=O)CCCCNC(=O)OC(C)(C)C` (stereo not drawn) [MN1229] was tested, and the “inhibition of cancer cell proliferation relative to parent compounds” value (T47D breast cancer cells [2]) was “inhibit cancer cell proliferation better than parent compounds” and the “inhibition of cancer cell migration” value (T47D breast cancer cells [7]) was “improvements over MN1186”.

With `Cc1ccc2[nH]c3c(c2c1)CCN(C(=O)C1CCC(CNC(=O)OC(C)(C)C)CC1)C3CC(C)C` (stereo not drawn) [MN1265] the IC50 (T47D breast cancer cells [7]) was 0.77 µM.

In the case of `CC(C)CC1c2[nH]c3ccc(F)cc3c2CCN1C(=O)C1CCC(CNC(=O)OC(C)(C)C)CC1` (stereo not drawn) [MN1266], the IC50 (T47D breast cancer cells [7]) is reported as 1.29 µM.
